This is an account of results in US6172097A, “Spiro imidazoline compounds” (Adir et Compagnie, priority 1998, dated 2001).

In test [1] the target is T1, α2-adrenergic receptors (Rattus norvegicus, UniProt P22909).
T1 construct: The membranes are prepared from the cerebral cortex of the rat; from tissue; host or cells: rat cerebral cortex membranes
T1 sequence (P22909 1-465): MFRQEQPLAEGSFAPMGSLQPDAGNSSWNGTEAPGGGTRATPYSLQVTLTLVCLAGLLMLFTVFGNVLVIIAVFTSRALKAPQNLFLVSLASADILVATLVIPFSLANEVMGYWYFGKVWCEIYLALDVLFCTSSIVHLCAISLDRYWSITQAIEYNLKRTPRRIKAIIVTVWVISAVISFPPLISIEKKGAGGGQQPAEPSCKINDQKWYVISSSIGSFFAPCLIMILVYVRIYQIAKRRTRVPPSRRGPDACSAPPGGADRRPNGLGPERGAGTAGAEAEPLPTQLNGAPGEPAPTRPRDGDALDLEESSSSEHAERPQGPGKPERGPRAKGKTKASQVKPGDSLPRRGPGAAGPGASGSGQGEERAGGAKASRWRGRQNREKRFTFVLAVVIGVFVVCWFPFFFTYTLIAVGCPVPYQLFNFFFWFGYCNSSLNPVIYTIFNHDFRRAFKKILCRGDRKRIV
As to the kind of experiment: Affinity for α2-adrenergic receptors in the rat, competition with [3H]-RX 821,002 on cerebral cortex membranes. In kind it is binding. To be noted: 0.4 nM [3H]-RX 821,002, 60 minutes at 22° C, pH 7.5. On the procedure:
Determination of the Affinity For α2 -Adrenergic Receptors in the Rat
The affinity was determined by competition experiments with [^3 H]-RX 821,002. The membranes are prepared from the cerebral cortex of the rat and are incubated in triplicate with 0.4 nM [^3 H]-RX 821,002 and the product to be tested in a final volume of 1.0 ml, for 60 minutes at 22° C. The incubation buffer contains […] TRIS-HCl (pH 7.5), 1 mM EDTA and 100 μM GppNHp. The non-specific binding is determined using 10 μM phentolamine.
(§1) At the end of incubation, the incubation medium is filtered through WHATMAN GF/B filters impregnated with 0.1% of polyethyleneimine, and washed three times with 5 ml of cooled buffer. The radioactivity retained on the filters is determined by liquid scintillation counting. The binding isotherms are analysed by non-linear regression.

For test [2], the target named is T2, noradrenaline reuptake sites (Rattus norvegicus, UniProt Q63380).
T2 construct: The membranes are prepared from the frontal cortex of the rat; from tissue; host or cells: rat frontal cortex membranes
T2 sequence (Q63380 1-617): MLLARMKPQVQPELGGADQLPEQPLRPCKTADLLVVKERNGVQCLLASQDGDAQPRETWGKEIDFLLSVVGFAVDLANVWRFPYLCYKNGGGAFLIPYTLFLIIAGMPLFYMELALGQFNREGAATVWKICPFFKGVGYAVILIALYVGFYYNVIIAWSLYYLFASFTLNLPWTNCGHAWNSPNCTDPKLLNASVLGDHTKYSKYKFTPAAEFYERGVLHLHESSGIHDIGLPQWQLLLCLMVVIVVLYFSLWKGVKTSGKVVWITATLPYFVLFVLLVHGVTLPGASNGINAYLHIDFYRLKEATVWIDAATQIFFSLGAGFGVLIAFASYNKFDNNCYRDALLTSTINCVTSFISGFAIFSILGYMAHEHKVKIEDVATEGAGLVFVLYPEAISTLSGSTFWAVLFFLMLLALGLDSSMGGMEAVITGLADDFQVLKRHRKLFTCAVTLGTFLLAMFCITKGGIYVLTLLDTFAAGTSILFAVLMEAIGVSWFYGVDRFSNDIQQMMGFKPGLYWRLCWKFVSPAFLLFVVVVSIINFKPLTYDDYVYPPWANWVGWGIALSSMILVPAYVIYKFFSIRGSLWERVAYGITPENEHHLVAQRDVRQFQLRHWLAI
Description: Affinity for noradrenaline reuptake sites in the rat, competition with [3H]-nisoxetine on frontal cortex membranes. The format is binding. To be noted: 2 nM [3H]-nisoxetine, 4 hours at 4° C, pH 7.4. As for the experimental part: Determination of the Affinity For Noradrenaline Reuptake Sites in the Rat
The affinity was determined by competition experiments with [^3 H]-nisoxetine. The membranes are prepared from the frontal cortex of the rat and are incubated in triplicate with 2 nM [^3 H]-nisoxetine and the product to be tested in a final volume of 0.5 ml, for 4 hours at 4° C. The incubation buffer contains 50 mM TRIS-HCl (pH 7.4), 120 mM NaCl and 5 mM KCl. The non-specific binding is determined using 10 μM desipramine.
as §1

For test [3], the target named is T3, serotonin reuptake sites (Rattus norvegicus, UniProt P31652).
T3 construct: The membranes are prepared from the frontal cortex of the rat; from tissue; host or cells: rat frontal cortex membranes
T3 sequence (P31652 whole entry): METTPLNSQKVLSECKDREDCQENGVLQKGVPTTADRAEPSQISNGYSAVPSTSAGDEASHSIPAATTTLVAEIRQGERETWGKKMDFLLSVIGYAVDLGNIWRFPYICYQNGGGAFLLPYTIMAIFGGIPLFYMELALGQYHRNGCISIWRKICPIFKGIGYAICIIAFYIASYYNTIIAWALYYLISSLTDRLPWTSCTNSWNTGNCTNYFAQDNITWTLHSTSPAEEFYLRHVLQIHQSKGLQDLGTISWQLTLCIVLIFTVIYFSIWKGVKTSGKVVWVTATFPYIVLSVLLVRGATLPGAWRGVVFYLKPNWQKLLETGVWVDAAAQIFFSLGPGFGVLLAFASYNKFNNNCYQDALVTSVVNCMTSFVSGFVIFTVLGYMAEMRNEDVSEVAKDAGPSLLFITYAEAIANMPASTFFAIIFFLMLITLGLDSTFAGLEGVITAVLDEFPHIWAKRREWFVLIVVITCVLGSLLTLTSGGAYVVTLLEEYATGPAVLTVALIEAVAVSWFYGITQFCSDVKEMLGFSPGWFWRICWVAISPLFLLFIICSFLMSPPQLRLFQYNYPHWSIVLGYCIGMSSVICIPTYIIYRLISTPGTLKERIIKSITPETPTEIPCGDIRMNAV
As to the kind of experiment: Affinity for serotonin reuptake sites in the rat, competition with [3H]-paroxetine on frontal cortex membranes. The format is binding. To be noted: 0.25 nM [3H]-paroxetine, 2 hours at 25° C, pH 7.4. As for the experimental part: Determination of the Affinity For Serotonin Reuptake Sites in the Rat
The affinity was determined by competition experiments with [^3 H]-paroxetine. The membranes are prepared from the frontal cortex of the rat and are incubated in triplicate with 0.25 nM [^3 H]-paroxetine and the cold ligand in a final volume of 0.4 ml, for 2 hours at 25° C. The incubation buffer contains 50 mM TRIS-HCl (pH 7.4), 120 mM NaCl and 5 mM KCl. The non-specific binding is determined using 10 μM citalopram.
as §1

Test [4] has as its system α2-adrenergic. To be noted: described in U.S. Pat. No. 5,017,584; cited from earlier work.
The subject of test [5] is monoamine reuptake. To be noted: described in U.S. Pat. No. 5,017,584; cited from earlier work.

Consider `C1=NC[C@@]2(CC[C@@H]3Cc4ccccc4C[C@H]3C2)N1` (relative stereo) [Example 1, Spiro[(1,3-diazacyclopent-1-ene)-5: 2'(S)-(trans-1',2',3',4',4'a(R),9',9'a(S),10'-octahydroanthracene)]fumarate and spiro [(1,3-diazacyclopent-1-ene)-5: 2'(R)-(trans-1',2',3',4',4'a(S),9',9'a(R),10'-octahydroanthracene)]fumarate], for which the Ki (commonly the dissociation constant of the complex between target and ligand, obtained from inhibition or displacement) in test [1] was 10 nM; in test [2] it was 200 nM; in test [3] it was 15.8 nM.
For the molecule `C1=C(CC2=NCCN2)CCc2ccccc21` [napamezole], the “α2-adrenergic antagonist activity (in words)” value in test [4] is on record as “α2-adrenergic antagonist activity”. Also, in test [5], the “monoamine reuptake-blocking activity (in words)” value is listed as “monoamine reuptake-blocking activity”.
